According to US9518981B2, “Modified nucleic acid binding cyanine dyes for the detection of reactive oxygen species” (LIFE TECHNOLOGIES CORPORATION, priority 2012, dated 2016):

Legend:
[1] = test system: Human osteosarcoma (U2-OS) cells; experiment: Resistance to formaldehyde fixation and detergent permeabilization; type: cell-based; details: 100 μM menadione 1 hr, 5 μM probe, 4% formaldehyde, 0.1% Triton X-100
Description: Human osteosarcoma (U2-OS) cells were plated on a 96-well plate at a density of 7,500 cells/well and incubated overnight at 37° C. The cells were treated with or without 100 μM menadione for 1 hr at 37° C. The cells were then stained with 5 μM Compound 1 and Hoechst 33342 by adding the probes to complete media and incubating at 37° C. for 30 min. The cells were washed with PBS and imaged on a Thermo Fisher Cellomics ArrayScan® VTI, either live or 4% formaldehyde fixed or formaldehyde-fixed and permeabilized with 0.1% Triton X-100.

[2] = test system: Jurkat cells (T-cell leukemia, human); experiment: Detection of ROS in complete media vs. protein-containing buffer, flow cytometry; type: cell-based; details: 500 nM probe
Description: Jurkat cells (T-cell leukemia, human) were resuspended in complete medium (RPMI 1640 medium, GIBCO (Life Technologies, Carlsbad, Calif.), supplemented with 10% Fetal Bovine Serum, FBS) or phosphate buffered saline supplemented with 1% bovine serum albumin (BSA). Cells in both complete medium (FIG. 9, panel A) and buffered saline+1% BSA (FIG. 9, panel B) were treated with diluents control, phosphate buffered saline alone (FIG. 9, control) or 400 μM tert-butyl-hydroperoxide (FIG. 9, TBHP) for 30 minutes at 37° C., 5% CO2 prior to staining with 500 nM Compound 1. Cell samples were analyzed on a BD LSRII flow cytometer equipped with a 488 nm laser line and a 525/50 bandpass filter for collection of fluorescence emission of Compound 1. The median fluorescent intensity (MFI) of Compound 1 fluorescence in control cells (FIG. 9, panel A) and the MFI of Compound 1 fluorescence in TBHP-treated cells (FIG. 9, panel B) stained in complete media (FIG. 9, panel A) were increased compared to samples stained in protein-containing buffer (FIG. 9, panel B). As a consequence, the signal to noise ratio (or fold change in TBHP-treated cells as compared to control cells) in the samples stained in complete media (FIG. 9, panel A) is greater (13.6) than the signal to noise ratio in the samples stained in protein-containing buffer (9.6).

[3] = test system: Human osteosarcoma (U2-OS) cells; experiment: Detection of TBHP- or menadione-induced ROS by fluorescence microscopy; type: cell-based; details: 200 μM TBHP 2 hrs or 100 μM menadione 1 hr, 5 μM probe for last 30 min, washed 3× PBS
Description: Human osteosarcoma (U2-OS) cells were plated on MatTek 30 mm dishes at a density of 200,000 cells/dish and incubated at 37° C. The cells were then treated with or without 200 μM tert-butyl hydroperoxide (TBHP, 2 hrs at 37° C.) or 100 μM menadione (1 hr at 37° C.). The cells were stained with 5 μM Compound 1 for the last 30 min of the drug incubation. The cells were washed 3× with phosphate buffered saline (PBS) and imaged on a Zeiss Axiovert inverted microscope using a 40× objective.

[4] = test system: Human aortic smooth muscle (HASM) cells; experiment: Detection of angiotensin-II-induced oxidative stress by fluorescence microscopy; type: cell-based; details: 500 ng/ml angiotensin-II 4 hrs, 5 μM probe for last 30 min
Description: Human aortic smooth muscle (HASM) cells were plated on MatTek 30 mm dishes at a density of 150,000 cells/dish and incubated at 37° C. The cells were then treated with or without 500 ng/ml angiotensin-II for 4 hrs. The cells were stained with 5 μM Compound 1 for last 30 min of the drug incubation. The cells were washed 3× with PBS and imaged on a Zeiss Axiovert inverted microscope using a 40× objective. An increase in the signal of Compound 1 as observed for all compounds tested, indicating an increase in oxidative stress in these cell models (see, FIG. 3).

[5] = test system: Jurkat cells (T-cell leukemia, human); experiment: Detection of ROS with and without a post-staining wash step, flow cytometry; type: cell-based
Description: Jurkat cells (T-cell leukemia, human) were treated with phosphate buffered saline (control; FIG. 8, panel A) or 200 μM tert-butyl-hydroperoxide (TBHP; FIG. 8, panel B) for one hour at 37° C., 5% CO2 prior to incubation with 500 nM Compound 1. Cell samples were directly analyzed on a Becton Dickinson LSRII flow cytometer equipped with a 488 nm laser line and a 525/50 bandpass filter for collection of fluorescence emission of Compound 1. Histogram overlays show cells analyzed immediately following 30 minutes incubation with Compound 1 (FIG. 8) compared to samples analyzed following three-3 mL wash steps (FIG. 8). […] The signal to noise ratio (or fold change in TBHP-treated cells as compared to control cells) in the no-wash samples was similar to the signal to noise ratio in the samples that were washed three times, 9.1 and 10.4, respectively, for the no-wash and the washed sample.

Jurkat cells [6] = experiment: Detection of oxidative stress using flow cytometry (menadione, TBHP); type: cell-based, human; details: menadione 25-100 μM or TBHP 50-200 μM 60 min, 5 μM probe, 488 nm laser, 530/30 filter
Description: Jurkat cells were diluted in RPMI with 10% FBS to a density of 10^6 cells/ml. Control cells were treated with vehicle control or DMSO, and sample cells were treated with different concentrations of menadione (25 μM, 50 μM, or 100 μM), or were treated with different concentrations of Tert-butyl hydroperoxide (TBHP) (50 μM, 100 μM, or 200 μM) for 60 min. Compound 1 was added to a final concentration of 5 μM for the last 30 minutes of drug incubation. The samples were acquired and analyzed on an Attune® Acoustic Focusing Cytometer. Compound 1 fluorescence was detected using the 488 nm laser and a 530/30 nm bandpass emission filter. A total of 20,000 events were collected using the standard 200 μl/minute collection rate. An increase in Compound 1 fluorescence intensity is observed in menadione and TBHP-treated cells compared to their controls (see, FIG. 6).

Jurkat cells [7] = experiment: Detection of TBHP-induced ROS by flow cytometry, with or without NAC; type: cell-based, human; details: 500 nM probe
Description: Jurkat cells were treated with phosphate buffered saline (FIG. 7, control), 200 μM tert-butyl-hydroperoxide (FIG. 7, TBHP), or 200 μM TBHP and 1 mM N-acetyl-L-cysteine (FIG. 7, TBHP+NAC), for one hour at 37° C., 5% CO2 prior to incubation with 500 nM Compound 1. Cell samples were analyzed using a Becton Dickinson LSRII flow cytometer equipped with a 488 nm laser line and a 525/50 bandpass filter for collection of fluorescence emission of Compound 1. TBHP is a membrane-permeant pro-oxidant used extensively in a model of oxidative stress in different systems. Reduction in the oxidative stress response induced by TBHP has been attributed to the ability of the antioxidant, NAC, to replenish intracellular glutathione levels. This reduces levels of reactive oxygen species.

## CCCCC1=C/C(=C/C2Sc3ccccc3N2C)c2ccccc2N1c1ccccc1 (stereo not shown) [Compound 1, (Z)-2-((2-butyl-1-phenylquinolin-4(1H)-ylidene)methyl)-3-methyl-2,3-dihydrobenzo[d]thiazole]
[1]
  signal retention after formaldehyde fixation and detergent permeabilization: retained well
[2]; 400 μM TBHP 30 minutes, PBS + 1% BSA
  signal to noise ratio (fold change in TBHP-treated cells as compared to control cells), protein-containing buffer: 9.6
[2]; 400 μM TBHP 30 minutes, RPMI 1640 + 10% FBS
  signal to noise ratio (fold change in TBHP-treated cells as compared to control cells), complete media: 13.6
[2]; control and 400 μM TBHP-treated cells
  median fluorescent intensity (MFI) in complete media compared to protein-containing buffer: increased
[3]
  signal of Compound 1 (fluorescence) in treated vs untreated cells: increase
[4]
  signal of Compound 1 (fluorescence) in treated vs untreated cells: increase
[5]; 500 nM probe 30 minutes, no wash vs three 3 mL wash steps
  median fluorescence intensity (MFI), no-wash cells compared to washed cells: not significantly different
[5]; 200 μM TBHP 1 hour, 500 nM probe, no wash
  signal to noise ratio (fold change in TBHP-treated cells as compared to control cells), no-wash sample: 9.1
[5]; 200 μM TBHP 1 hour, 500 nM probe, washed three times
  signal to noise ratio (fold change in TBHP-treated cells as compared to control cells), washed sample: 10.4
Jurkat cells [6]
  fluorescence intensity in menadione and TBHP-treated cells compared to controls: increase
Jurkat cells [7]; 200 μM TBHP 1 hour
  Mean Fluorescence Intensity (MFI), TBHP-treated cells: 3944
Jurkat cells [7]; 200 μM TBHP and 1 mM N-acetyl-L-cysteine 1 hour
  Mean Fluorescence Intensity (MFI), TBHP + NAC treated cells: 2768
Jurkat cells [7]; phosphate buffered saline control
  Mean Fluorescence Intensity (MFI), control cells: 365
